Measurements taken from patent US7423159B2, “Agent for preventing or treating neuropathy” (Takeda Pharmaceutical Company Limited, priority 2002, dated 2008).

Cn1ncc(/C=C/C(=O)Nc2ccc(Cc3nc4c(s3)CCCC4)cc2)c1-c1ccc(F)cc1 [Example 124, (2E)-3-[5-(4-Fluorophenyl)-1-methyl-1H-pyrazol-4-yl]-N-[4-(4,5,6,7-tetrahydro-1,3-benzothiazol-2-ylmethyl)phenyl]acrylamide] gave a melting point of 205 to 206 °C. With CCc1csc(Cc2ccc(NC(=O)/C=C/c3cnn(C)c3-c3ccc(F)cc3)cc2)n1 [Example 125, (2E)-N-{4-[(4-ethyl-1,3-thiazol-2-yl)methyl]phenyl}-3-[5-(4-fluorophenyl)-1-methyl-1H-pyrazol-4-yl]acrylamide] the melting point was 211 to 212 °C. Molecule CCOC(=O)c1csc(Cc2ccc(NC(=O)/C=C/c3cnn(C)c3-c3ccc(F)cc3)cc2)n1 [Example 126, Ethyl 2-[4-({(2E)-3-[5-(4-fluorophenyl)-1-methyl-1H-pyrazol-4-yl]prop-2-enoyl}amino)benzyl]-1,3-thiazole-4-carboxylate] has a melting point of 189 to 190 °C. In the case of Cc1csc(Cc2ccc(NC(=O)/C=C/c3cnn(C)c3-c3ccc(F)cc3)cc2)n1 [Example 127, (2E)-3-[5-(4-Fluorophenyl)-1-methyl-1H-pyrazol-4-yl]-N-(4-[(4-methyl-1,3-thiazol-2-yl)methyl)phenyl]acrylamide], the melting point was 217 to 218 °C. With Cn1ncc(/C=C/C(=O)Nc2ccc(Cc3nccs3)cc2)c1-c1ccc(F)cc1 [Example 128, (2E)-3-[5-(4-Fluorophenyl)-1-methyl-1H-pyrazol-4-yl]-N-{4-[(1,3-thiazol-2-yl)methyl]phenyl}acrylamide] the melting point was 209 to 210 °C. Cn1ncc(/C=C/C(=O)Nc2ccc(Cc3nnco3)cc2)c1-c1ccc(F)cc1 [Example 129, (2E)-3-[5-(4-Fluorophenyl)-1-methyl-1H-pyrazol-4-yl]-N-[4-(1,3,4-oxadiazol-2-ylmethyl)phenyl]acrylamide] showed a melting point of 223 to 224 °C. Cn1ncc(/C=C/C(=O)Nc2ccc(CCc3nccs3)cc2)c1-c1ccc(F)cc1 [Example 130, (2E)-3-[5-(4-Fluorophenyl)-1-methyl-1H-pyrazol-4-yl]-N-(4-[2-(1,3-thiazol-2-yl)ethyl]phenyl}acrylamide] gave a melting point of 201 to 202 °C. Cn1ncc(/C=C/C(=O)Nc2ccc(Cc3nc(C(=O)O)cs3)cc2)c1-c1ccc(F)cc1 [Example 131, 2-[4-({(2E)-3-[5-(4-fluorophenyl)-1-methyl-1H-pyrazol-4-yl]prop-2-enoyl}amino)benzyl]-1,3-thiazole-4-carboxylic acid] showed a melting point of 226 to 227 °C. Cn1ncc(/C=C/C(=O)Nc2ccc(Cc3nc(C(N)=O)cs3)cc2)c1-c1ccc(F)cc1 [Example 132, 2-[4-({(2E)-3-[5-(4-fluorophenyl)-1-methyl-1H-pyrazol-4-yl]prop-2-enoyl}amino)benzyl]-1,3-thiazole-4-carboxamide] gave a melting point of 159 to 160 °C. Cn1ncc(/C=C/C(=O)Nc2ccc(CC(=O)O)cc2)c1-c1ccc(F)cc1 [Example 133, [4-({(2E)-3-[5-(4-fluorophenyl)-1-methyl-1H-pyrazol-4-yl]prop-2-enoyl]amino}phenyl]acetic acid] showed a melting point of 245 to 246 °C. CCc1nnc(Cc2ccc(NC(=O)/C=C/c3cnn(C)c3-c3ccc(F)cc3)cc2)o1 [Example 134, (2E)-N-{4-[(5-ethyl-1,3,4-oxadiazol-2-yl)methyl]phenyl}-3-[5-(4-fluorophenyl)-1-methyl-1H-pyrazol-4-yl]acrylamide] showed a melting point of 164 to 165 °C. For Cc1nnc(Cc2ccc(NC(=O)/C=C/c3cnn(C)c3-c3ccc(F)cc3)cc2)o1 [Example 136, (2E)-3-[5-(4-fluorophenyl)-1-methyl-1H-pyrazol-4-yl]-N-{4-[(5-methyl-1,3,4-oxadiazol-2-yl)methyl]phenyl}acrylamide], the melting point was 151 to 152 °C. With Cn1ncc(/C=C/C(=O)Nc2ccc(CN)cc2)c1-c1ccc(F)cc1 [Example 137, (2E)-N-[4-(aminomethyl)phenyl]-3-[5-(4-fluorophenyl)-1-methyl-1H-pyrazol-4-yl]acrylamide] the melting point was 201 to 202 °C. With CCC(=O)NCc1ccc(NC(=O)/C=C/c2cnn(C)c2-c2ccc(F)cc2)cc1 [Example 138, (2E)-3-[5-(4-fluorophenyl)-1-methyl-1H-pyrazol-4-yl]-N-{4-[(propionylamino)methyl]phenyl}acrylamide] the melting point was 271 to 272 °C. For CC(C)C(=O)NCc1ccc(NC(=O)/C=C/c2cnn(C)c2-c2ccc(F)cc2)cc1 [Example 139, (2E)-3-[5-(4-Fluorophenyl)-1-methyl-1H-pyrazol-4-yl]-N-{4-[(isobutyrylamino)methyl]phenyl}acrylamide], the melting point was 258 to 259 °C. With CC(C)CC(=O)NCc1ccc(NC(=O)/C=C/c2cnn(C)c2-c2ccc(F)cc2)cc1 [Example 141, (2E)-3-[5-(4-Fluorophenyl)-1-methyl-1H-pyrazol-4-yl]-N-(4-{[(3-methylbutanoyl)amino]methyl}phenyl)acrylamide] the melting point was 226 to 227 °C. Molecule Cn1ncc(/C=C/C(=O)Nc2ccc(CNC(=O)c3ccccc3)cc2)c1-c1ccc(F)cc1 [Example 142, N-[4-({(2E)-3-[5-(4-Fluorophenyl)-1-methyl-1H-pyrazol-4-yl]prop-2-enoyl}amino)benzyl]benzamide] has a melting point of 250 to 251 °C. In the case of CN(C)C(=O)Cc1ccc(NC(=O)/C=C/c2cnn(C)c2-c2ccc(F)cc2)cc1 [Example 143, (2E)-N-{4-[2-(dimethylamino)-2-oxoethyl]phenyl}-3-[5-(4-fluorophenyl)-1-methyl-1H-pyrazol-4-yl]acrylamide], the melting point was 209 to 210 °C. With Cn1ncc(/C=C/C(=O)Nc2ccc(CO)cc2)c1-c1ccc(F)cc1 [Example 153, (2E)-3-[5-(4-Fluorophenyl)-1-methyl-1H-pyrazol-4-yl]-N-[4-(hydroxymethyl)phenyl]acrylamide] the melting point was 117 to 118 °C. With Cn1ncc(/C=C/C(=O)Nc2ccc(CN3C(=O)CNC3=O)cc2)c1-c1ccc(F)cc1 [Example 157, (2E)-N-{4-[(2,5-Dioxo-1-imidazolidinyl)methyl]phenyl}-3-[5-(4-fluorophenyl)-1-methyl-1H-pyrazol-4-yl]acrylamide] the melting point was 249 to 250 °C. With Cn1ncc(/C=C/C(=O)Nc2ccc(CN3C(=O)CCCC3=O)cc2)c1-c1ccc(F)cc1 [Example 158, (2E)-N-{4-[(2,6-Dioxo-1-piperidinyl)methyl]phenyl}-3-[5-(4-fluorophenyl)-1-methyl-1H-pyrazol-4-yl]acrylamide] the melting point was 218 to 220 °C. CC(C)c1nccn1Cc1ccc(NC(=O)/C=C/c2cnn(C)c2-c2ccc(F)cc2)cc1 [Example 162, (2E)-3-[5-(4-Fluorophenyl)-1-methyl-1H-pyrazol-4-yl]-N-{4-[(2-isopropyl-1H-imidazol-1-yl)methyl]phenyl}acrylamide] showed a melting point of 271 to 272 °C. In the case of COC(=O)c1ncnn1Cc1ccc(NC(=O)/C=C/c2cnn(C)c2-c2ccc(F)cc2)cc1 [Example 164, Methyl 1-[4-({(2E)-3-[5-(4-fluorophenyl)-1-methyl-1H-pyrazol-4-yl]prop-2-enoyl}amino)benzyl]-1H-1,2,4-triazole-5-carboxylate], the melting point was 203 to 205 °C. Molecule CC(=O)c1ccc(NC(=O)/C=C/c2cnn(C)c2-c2ccc(F)cc2)cc1 [Example 165, (2E)-N-(4-Acetylphenyl)-3-[5-(4-fluorophenyl)-1-methyl-1H-pyrazol-4-yl)acrylamide] has a melting point of 204 to 205 °C. With CC(=O)Nc1ccc(NC(=O)/C=C/c2cnn(C)c2-c2ccc(F)cc2)cc1 [Example 166, (2E)-N-[4-(Acetylamino)phenyl]-3-[5-(4-fluorophenyl)-1-methyl-1H-pyrazol-4-yl]acrylamide] the melting point was 281 to 282 °C. For Cn1ncc(/C=C/C(=O)Nc2ccc(CCO)cc2)c1-c1ccc(F)cc1 [Example 167, (2E)-3-[5-(4-Fluorophenyl)-1-methyl-1H-pyrazol-4-yl]-N-[4-(2-hydroxyethyl)phenyl]acrylamide], the melting point was 198 to 200 °C. In the case of Cn1ncc(/C=C/C(=O)Nc2cccc(CO)c2)c1-c1ccc(F)cc1 [Example 169, (2E)-3-[5-(4-Fluorophenyl)-1-methyl-1H-pyrazol-4-yl]-N-[3-(hydroxymethyl)phenyl)acrylamide], the melting point was 130 to 132 °C. Cn1ncc(/C=C/C(=O)Nc2ccc(CNC(=O)OC(C)(C)C)cc2)c1-c1ccc(F)cc1 [Example 170, tert-Butyl 4-({(2E)-3-[5-(4-fluorophenyl)-1-methyl-1H-pyrazol-4-yl]prop-2-enoyl]amino)benzylcarbamate] gave a melting point of 222 to 223 °C. CCc1cn(Cc2ccc(NC(=O)/C=C/c3cnn(C)c3-c3ccc(F)cc3)cc2)cn1 [Example 171, (2E)-N-{4-[(4-Ethyl-1H-imidazol-1-yl)methyl]phenyl}-3-[5-(4-fluorophenyl)-1-methyl-1H-pyrazol-4-yl]acrylamide] showed a melting point of 224 to 226 °C. Molecule Cc1cc2ncn(Cc3ccc(NC(=O)/C=C/c4cnn(C)c4-c4ccc(F)cc4)cc3)c2cc1C [Example 172, (2E)-N-(4-[(5,6-Dimethyl-1H-benzimidazol-1-yl)methyl]phenyl}-3-[5-(4-fluorophenyl)-1-methyl-1H-pyrazol-4-yl]acrylamide] has a melting point of 279 to 280 °C. In the case of Cc1nc2ccccc2n1Cc1ccc(NC(=O)/C=C/c2cnn(C)c2-c2ccc(F)cc2)cc1 [Example 173, (2E)-3-[5-(4-Fluorophenyl)-1-methyl-1H-pyrazol-4-yl]-N-{4-[(2-methyl-1H-benzimidazol-1-yl)methyl]phenyl}acrylamide], the melting point was 263 to 264 °C. In the case of Cn1ncc(/C=C/C(=O)Nc2ccc(C(O)c3ccccc3)cc2)c1-c1ccc(F)cc1 (stereo not shown) [Example 174, (2E)-3-[5-(4-Fluorophenyl)-1-methyl-1H-pyrazol-4-yl]-N-{4-[hydroxy(phenyl)methyl]phenyl}acrylamide], the melting point was 192 to 195 °C. Molecule Cn1ncc(/C=C/C(=O)Nc2ccc(Cc3ccccc3)cc2)c1-c1ccc(F)cc1 [Example 175, (2E)-N-(4-Benzylphenyl)-3-[5-(4-fluorophenyl)-1-methyl-1H-pyrazol-4-yl]acrylamide] has a melting point of 226 to 227 °C. With Cn1ncc(/C=C/C(=O)Nc2ccc(Cn3ncc4ccccc43)cc2)c1-c1ccc(F)cc1 [Example 176, (2E)-3-[5-(4-Fluorophenyl)-1-methyl-1H-pyrazol-4-yl]-N-[4-(1H-indazol-1-ylmethyl)phenyl]acrylamide] the melting point was 146 to 148 °C.
